Reference: ChEMBL document CHEMBL4002566, “S-substituted 3,5-dinitrophenyl 1,3,4-oxadiazole-2-thiols and tetrazole-5-thiols as highly efficient antitubercular agents” (Eur J Med Chem, 2017)
Values after ≈ are worked out from the molar mass of the structure shown.

Assays:
Format in all cases: functional
[1] = system: Mycobacterium tuberculosis; assay: Antimycobacterial activity against multidrug-resistant Mycobacterium tuberculosis Praha 131 after 21 days by micromethod; details: Praha 131, 504 h
[2] = system: Mycobacterium tuberculosis; assay: Antimycobacterial activity against multidrug-resistant Mycobacterium tuberculosis 7357/1998 after 14 days by micromethod; details: 7357/1998, 336 h
[3] = system: Mycobacterium tuberculosis; assay: Antimycobacterial activity against multidrug-resistant Mycobacterium tuberculosis 234/2005 after 14 days by micromethod; details: 234/2005, 336 h
[4] = system: Mycobacterium tuberculosis; assay: Antimycobacterial activity against multidrug-resistant Mycobacterium tuberculosis 8666/2010 after 14 days by micromethod; details: 8666/2010, 336 h
[5] = system: Mycobacterium tuberculosis; assay: Antimycobacterial activity against multidrug-resistant Mycobacterium tuberculosis Praha 131 after 14 days by micromethod; details: Praha 131, 336 h
[6] = system: Mycobacterium tuberculosis; assay: Antimycobacterial activity against multidrug-resistant Mycobacterium tuberculosis Praha 1 after 14 days by micromethod; details: Praha 1, 336 h
[7] = system: Mycobacterium tuberculosis; assay: Antimycobacterial activity against multidrug-resistant Mycobacterium tuberculosis Praha 4 after 14 days by micromethod; details: Praha 4, 336 h
[8] = system: Mycobacterium tuberculosis; assay: Antimycobacterial activity against multidrug-resistant Mycobacterium tuberculosis 8666/2010 after 21 days by micromethod; details: 8666/2010, 504 h
[9] = system: Mycobacterium tuberculosis; assay: Antimycobacterial activity against multidrug-resistant Mycobacterium tuberculosis 9449/2007 after 21 days by micromethod; details: 9449/2007, 504 h
[10] = system: Mycobacterium tuberculosis; assay: Antimycobacterial activity against multidrug-resistant Mycobacterium tuberculosis Praha 4 after 21 days by micromethod; details: Praha 4, 504 h
[11] = system: Mycobacterium tuberculosis; assay: Antimycobacterial activity against multidrug-resistant Mycobacterium tuberculosis 234/2005 after 21 days by micromethod; details: 234/2005, 504 h
[12] = system: Mycobacterium tuberculosis; assay: Antimycobacterial activity against multidrug-resistant Mycobacterium tuberculosis Praha 1 after 21 days by micromethod; details: Praha 1, 504 h
[13] = system: Mycobacterium tuberculosis; assay: Antimycobacterial activity against multidrug-resistant Mycobacterium tuberculosis 9449/2007 after 14 days by micromethod; details: 9449/2007, 336 h
[14] = system: Mycobacterium tuberculosis; assay: Antimycobacterial activity against multidrug-resistant Mycobacterium tuberculosis 7357/1998 after 21 days by micromethod; details: 7357/1998, 504 h

SMILES | MIC [1] [µM] | MIC [2] [µM] | MIC [3] [µM] | MIC [4] [µM] | MIC [5] [µM] | MIC [6] [µM] | MIC [7] [µM] | MIC [8] [µM] | MIC [9] [µM] | MIC [10] [µM] | MIC [11] [µM] | MIC [12] [µM] | MIC [13] [µM] | MIC [14] [µM]
O=[N+]([O-])c1cc(-c2nnc(SCc3ccc(Cl)c(Cl)c3)o2)cc(C(F)(F)F)c1 | 0.5 (≈ 0.225 µg/mL) | 0.5 (≈ 0.225 µg/mL) | 0.5 (≈ 0.225 µg/mL) | 0.5 (≈ 0.225 µg/mL) | 0.5 (≈ 0.225 µg/mL) | 0.5 (≈ 0.225 µg/mL) | 0.25 (≈ 0.113 µg/mL) | 0.5 (≈ 0.225 µg/mL) | 0.5 (≈ 0.225 µg/mL) | 0.5 (≈ 0.225 µg/mL) | 0.5 (≈ 0.225 µg/mL) | 0.5 (≈ 0.225 µg/mL) | 0.5 (≈ 0.225 µg/mL) | 0.5 (≈ 0.225 µg/mL)
O=[N+]([O-])c1cc(-n2nnnc2SCc2ccc(Cl)cc2)cc([N+](=O)[O-])c1 | 0.5 (≈ 0.196 µg/mL) | 0.5 (≈ 0.196 µg/mL) | 0.5 (≈ 0.196 µg/mL) | 0.5 (≈ 0.196 µg/mL) | 0.5 (≈ 0.196 µg/mL) | 0.5 (≈ 0.196 µg/mL) | 0.5 (≈ 0.196 µg/mL) | 0.5 (≈ 0.196 µg/mL) | 0.5 (≈ 0.196 µg/mL) | 0.5 (≈ 0.196 µg/mL) | 0.5 (≈ 0.196 µg/mL) | 0.5 (≈ 0.196 µg/mL) | 0.5 (≈ 0.196 µg/mL) | 0.5 (≈ 0.196 µg/mL)
CO[C@H]1/C=C/O[C@@]2(C)Oc3c(C)c(O)c4c(O)c(c(/C=N/N5CCN(C)CC5)c(O)c4c3C2=O)NC(=O)/C(C)=C\C=C\[C@H](C)[C@H](O)[C@@H](C)[C@@H](O)[C@@H](C)[C@H](OC(C)=O)[C@@H]1C [RIFAMPIN] | – | > 8 | > 8 | > 8 | > 8 | > 8 | > 8 | – | – | – | – | – | > 8 | –
CC(C)/N=c1\cc2n(-c3ccc(Cl)cc3)c3ccccc3nc-2cc1Nc1ccc(Cl)cc1 [CLOFAZIMINE] | – | 0.125 (≈ 0.0592 µg/mL) | 0.125 (≈ 0.0592 µg/mL) | 2 (≈ 0.947 µg/mL) | 0.25 (≈ 0.118 µg/mL) | 0.5 (≈ 0.237 µg/mL) | 0.5 (≈ 0.237 µg/mL) | – | – | – | – | – | 0.125 (≈ 0.0592 µg/mL) | –
NNC(=O)c1ccncc1 [ISONIAZID] | – | 16 (≈ 2.19 µg/mL) | 16 (≈ 2.19 µg/mL) | 32 (≈ 4.39 µg/mL) | 16 (≈ 2.19 µg/mL) | 16 (≈ 2.19 µg/mL) | 16 (≈ 2.19 µg/mL) | – | – | – | – | – | 64 (≈ 8.78 µg/mL) | –
O=[N+]([O-])c1cc(-c2nnc(SCc3ccc(Cl)cc3)o2)cc([N+](=O)[O-])c1 | 0.06 (≈ 0.0236 µg/mL) | 0.03 (≈ 0.0118 µg/mL) | 0.03 (≈ 0.0118 µg/mL) | 0.03 (≈ 0.0118 µg/mL) | 0.03 (≈ 0.0118 µg/mL) | 0.03 (≈ 0.0118 µg/mL) | 0.03 (≈ 0.0118 µg/mL) | 0.06 (≈ 0.0236 µg/mL) | 0.06 (≈ 0.0236 µg/mL) | 0.06 (≈ 0.0236 µg/mL) | 0.06 (≈ 0.0236 µg/mL) | 0.06 (≈ 0.0236 µg/mL) | 0.03 (≈ 0.0118 µg/mL) | 0.06 (≈ 0.0236 µg/mL)
O=[N+]([O-])c1cc(-c2nnc(SCc3ccccc3)o2)cc(C(F)(F)F)c1 | 2 (≈ 0.763 µg/mL) | 1 (≈ 0.381 µg/mL) | 1 (≈ 0.381 µg/mL) | 1 (≈ 0.381 µg/mL) | 1 (≈ 0.381 µg/mL) | 1 (≈ 0.381 µg/mL) | 1 (≈ 0.381 µg/mL) | 2 (≈ 0.763 µg/mL) | 2 (≈ 0.763 µg/mL) | 1 (≈ 0.381 µg/mL) | 1 (≈ 0.381 µg/mL) | 1 (≈ 0.381 µg/mL) | 2 (≈ 0.763 µg/mL) | 2 (≈ 0.763 µg/mL)
CN[C@@H]1[C@H](O[C@H]2[C@H](O[C@H]3[C@H](O)[C@@H](O)[C@H](N=C(N)N)[C@@H](O)[C@@H]3N=C(N)N)O[C@@H](C)[C@]2(O)C=O)O[C@@H](CO)[C@H](O)[C@H]1O [STREPTOMYCIN] | – | > 32 | 32 (≈ 18.6 µg/mL) | > 32 | > 32 | 16 (≈ 9.31 µg/mL) | > 32 | – | – | – | – | – | > 32 | –
O=[N+]([O-])c1cc(-c2nnc(SCc3ccc(Cl)c(Cl)c3)o2)cc([N+](=O)[O-])c1 | 0.03 (≈ 0.0128 µg/mL) | 0.03 (≈ 0.0128 µg/mL) | 0.03 (≈ 0.0128 µg/mL) | 0.03 (≈ 0.0128 µg/mL) | 0.03 (≈ 0.0128 µg/mL) | 0.03 (≈ 0.0128 µg/mL) | 0.03 (≈ 0.0128 µg/mL) | 0.03 (≈ 0.0128 µg/mL) | 0.03 (≈ 0.0128 µg/mL) | 0.03 (≈ 0.0128 µg/mL) | 0.03 (≈ 0.0128 µg/mL) | 0.03 (≈ 0.0128 µg/mL) | 0.03 (≈ 0.0128 µg/mL) | 0.03 (≈ 0.0128 µg/mL)
